This test addresses human TRPA1 channel (Homo sapiens (Human), UniProt O75762). The experiment in a line: hTRPA1 CHO Ca2+ FLIPR Tetra assay, block of cinnamaldehyde induced calcium influx. The class given is cell-based. The settings on record: for IC50: CHO cells expressing TRPA1, Hill coefficient fixed to 1.5; for TRPA1 IC50 compared with 3-azabicyclo[3.1.0]hexene linker and cyclobutylene linker analogues: bicyclo[3.1.0]hexene linker compounds versus same-substituent analogues (compounds 16, 191; 26, 1). A digest of the protocol:
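IC50 values come from fixed-Hill fits of inhibition of cinnamaldehyde-induced (about EC50 level) calcium influx measured by FLIPR Tetra. Before agonist, TRPA1-expressing CHO cells loaded with calcium indicator were exposed to compound for 10 or 90 min at room temperature in HEPES-buffered HBSS, pH 7.4, with 0.02% BSA.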

[1] abbreviates: read-out: hTRPA1 IC50 (10 min), compounds incubated 10 minutes at room temperature before cinnamaldehyde agonist.
[2] abbreviates: read-out: hTRPA1 IC50 (90 min), compounds incubated 90 minutes at room temperature before cinnamaldehyde agonist.

The structures appear in SMILES notation. Read-outs that look alike come from different tables or passages of the source.

Chain of human TRPA1 channel (O75762 whole entry): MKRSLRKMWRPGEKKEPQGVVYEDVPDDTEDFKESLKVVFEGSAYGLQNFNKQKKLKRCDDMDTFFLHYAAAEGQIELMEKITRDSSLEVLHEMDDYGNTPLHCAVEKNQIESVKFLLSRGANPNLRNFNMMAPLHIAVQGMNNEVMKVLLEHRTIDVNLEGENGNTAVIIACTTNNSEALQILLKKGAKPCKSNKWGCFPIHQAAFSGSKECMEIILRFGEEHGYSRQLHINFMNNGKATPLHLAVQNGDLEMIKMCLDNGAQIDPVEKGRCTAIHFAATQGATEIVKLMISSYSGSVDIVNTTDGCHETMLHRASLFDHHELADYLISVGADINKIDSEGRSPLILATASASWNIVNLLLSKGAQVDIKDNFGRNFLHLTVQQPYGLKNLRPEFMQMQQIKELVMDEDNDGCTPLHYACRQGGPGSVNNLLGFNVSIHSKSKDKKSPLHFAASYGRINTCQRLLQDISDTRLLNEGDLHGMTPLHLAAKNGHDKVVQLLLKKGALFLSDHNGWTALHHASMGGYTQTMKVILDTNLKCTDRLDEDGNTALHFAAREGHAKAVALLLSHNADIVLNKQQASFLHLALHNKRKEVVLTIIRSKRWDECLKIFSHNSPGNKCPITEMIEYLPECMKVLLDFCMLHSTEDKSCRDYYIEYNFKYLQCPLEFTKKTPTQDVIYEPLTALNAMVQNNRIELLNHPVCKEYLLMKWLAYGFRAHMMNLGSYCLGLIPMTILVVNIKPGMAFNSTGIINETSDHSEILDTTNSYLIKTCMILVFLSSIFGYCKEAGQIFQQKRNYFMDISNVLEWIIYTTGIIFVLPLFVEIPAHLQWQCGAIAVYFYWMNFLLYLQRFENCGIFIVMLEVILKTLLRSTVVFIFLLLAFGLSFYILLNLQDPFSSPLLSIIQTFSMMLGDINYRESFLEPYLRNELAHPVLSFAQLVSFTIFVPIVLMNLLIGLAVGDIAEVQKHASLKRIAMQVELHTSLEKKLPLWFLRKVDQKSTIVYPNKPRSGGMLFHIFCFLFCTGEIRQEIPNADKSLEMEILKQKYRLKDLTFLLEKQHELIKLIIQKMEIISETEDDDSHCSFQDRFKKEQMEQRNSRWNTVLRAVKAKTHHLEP

With `Cn1cc(-c2cccc(N3C[C@@H]4[C@H](C3)[C@H]4c3noc(Cn4ncc5ncccc5c4=O)n3)c2)cn1` [Example Compound 169, 6-((3-((1R,5S,6r)-3-(3-(1-methyl-1H-pyrazol-4-yl)phenyl)-3-azabicyclo[3.1.0]hexan-6-yl)-1,2,4-oxadiazol-5-yl)methyl)pyrido[2,3-d]pyridazin-5(6H)-one], the IC50 under setting [1] is 0.043 µM and the IC50 under setting [2] came to 0.041 µM.
On to `Cn1cnc2ncn(Cc3nc([C@H]4[C@@H]5CN(c6cc(Cl)c(F)cn6)C[C@@H]54)no3)c(=O)c21` [Example Compound 170, 1-((3-((1R,5S,6r)-3-(4-chloro-5-fluoropyridin-2-yl)-3-azabicyclo[3.1.0]hexan-6-yl)-1,2,4-oxadiazol-5-yl)methyl)-7-methyl-1,7-dihydro-6H-purin-6-one], for which the IC50 under setting [1] is 0.233 µM and the IC50 under setting [2] was determined as 0.13 µM.
Take `Cn1cnc2ncn(Cc3nc([C@H]4[C@@H]5CN(c6cccc(C#N)n6)C[C@@H]54)no3)c(=O)c21` [Example Compound 171, 6-((1R,5S,6r)-6-(5-((7-methyl-6-oxo-6,7-dihydro-1H-purin-1-yl)methyl)-1,2,4-oxadiazol-3-yl)-3-azabicyclo[3.1.0]hexan-3-yl)picolinonitrile]: the IC50 by setting is: under setting [1], 0.271 µM; under setting [2], 0.089 µM.
Take `Cn1cnc2ncn(Cc3nc([C@@H]4CC[C@@H](c5ccc(F)cc5)C4)no3)c(=O)c21` [Example Compound 172, 1-((3-((1R,3R)-3-(4-fluorophenyl)cyclopentyl)-1,2,4-oxadiazol-5-yl)methyl)-7-methyl-1,7-dihydro-6H-purin-6-one]: the IC50 is 0.0266 µM under setting [1] and 0.018 µM under setting [2].
For the compound `Cn1c(=O)ccc2ncn(Cc3nc([C@H]4[C@@H]5CN(c6cccc(Cl)c6)C[C@@H]54)no3)c(=O)c21` [Example Compound 173, 3-((3-((1R,5S,6r)-3-(3-chlorophenyl)-3-azabicyclo[3.1.0]hexan-6-yl)-1,2,4-oxadiazol-5-yl)methyl)-5-methyl-3,5-dihydropyrido[3,2-d]pyrimidine-4,6-dione], under setting [1], the IC50 was determined as 0.00397 µM.
On to `Cn1c(=O)ccc2ncn(Cc3nc([C@H]4[C@@H]5CN(c6cc(Cl)ccn6)C[C@@H]54)no3)c(=O)c21` [Example Compound 174, 3-((3-((1R,5S,6r)-3-(4-chloropyridin-2-yl)-3-azabicyclo[3.1.0]hexan-6-yl)-1,2,4-oxadiazol-5-yl)methyl)-5-methyl-3,5-dihydropyrido[3,2-d]pyrimidine-4,6-dione], for which the IC50 under setting [1] turned out to be 0.0606 µM and the IC50 under setting [2] came out at 0.05 µM.
Take `Cn1cnc2ncn(Cc3nc([C@H]4[C@@H]5CN(c6ccnc(F)c6)C[C@@H]54)no3)c(=O)c21` [Example Compound 175, 1-((3-((1R,5S,6r)-3-(2-fluoropyridin-4-yl)-3-azabicyclo[3.1.0]hexan-6-yl)-1,2,4-oxadiazol-5-yl)methyl)-7-methyl-1,7-dihydro-6H-purin-6-one]: the IC50 was found to be 0.42 µM under setting [1] and 0.073 µM under setting [2].
For the compound `Cn1cnc2ncn(Cc3nc([C@H]4C[C@H](Oc5cccc(F)c5)C4)no3)c(=O)c21` [Example Compound 176, 1-((3-((1r,3r)-3-(3-fluorophenoxy)cyclobutyl)-1,2,4-oxadiazol-5-yl)methyl)-7-methyl-1,7-dihydro-6H-purin-6-one], under setting [1], the IC50 stood at 0.0243 µM.
`Cn1cnc2ncn(Cc3nc([C@H]4C[C@H](Oc5ccc(F)cc5)C4)no3)c(=O)c21` [Example Compound 177, 1-((3-((1r,3r)-3-(4-fluorophenoxy)cyclobutyl)-1,2,4-oxadiazol-5-yl)methyl)-7-methyl-1,7-dihydro-6H-purin-6-one]: under setting [1], the 50% inhibitory concentration (IC50) was determined as 0.0401 µM.
As to `Cn1cnc2ncn(Cc3nc([C@H]4C[C@H](Oc5cccc(C#N)c5)C4)no3)c(=O)c21` [Example Compound 178, 3-((1r,3r)-3-(5-((7-methyl-6-oxo-6,7-dihydro-1H-purin-1-yl)methyl)-1,2,4-oxadiazol-3-yl)cyclobutoxy)benzonitrile], the IC50 under setting [1] was 0.0815 µM.
With `Cn1cc(-c2ccc(N3C[C@@H]4[C@H](C3)[C@H]4c3noc(Cn4cnc5ncn(C)c5c4=O)n3)cc2)cn1` [Example Compound 179, 7-methyl-1-((3-((1R,5S,6r)-3-(4-(1-methyl-1H-pyrazol-4-yl)phenyl)-3-azabicyclo[3.1.0]hexan-6-yl)-1,2,4-oxadiazol-5-yl)methyl)-1,7-dihydro-6H-purin-6-one], the IC50 worked out at 0.134 µM under setting [1] and 0.067 µM under setting [2].
In the case of `O=c1c2cccnc2ncn1Cc1nc([C@H]2[C@@H]3C=C(c4cccc(Cl)c4)C[C@@H]32)no1` [Example Compound 180, 3-((3-((1S,5S,6R)-3-(3-chlorophenyl)bicyclo[3.1.0]hex-2-en-6-yl)-1,2,4-oxadiazol-5-yl)methyl)pyrido[2,3-d]pyrimidin-4(3H)-one], the IC50 runs as follows: under setting [1], 0.0233 µM; under setting [2], 0.024 µM.
For the compound `O=c1c2cccnc2ncn1Cc1nc([C@@H]2[C@H]3C=C(c4cccc(Cl)c4)C[C@H]32)no1` [Example Compound 181, 3-((3-((1R,5R,6S)-3-(3-chlorophenyl)bicyclo[3.1.0]hex-2-en-6-yl)-1,2,4-oxadiazol-5-yl)methyl)pyrido[2,3-d]pyrimidin-4(3H)-one], the IC50 by setting is: under setting [1], 0.0218 µM; under setting [2], 0.021 µM.
For the compound `Cn1cnc2ncn(Cc3nc([C@H]4[C@@H]5CN(c6cc(F)ccn6)C[C@@H]54)no3)c(=O)c21` [Example Compound 182, 1-((3-((1R,5S,6r)-3-(4-fluoropyridin-2-yl)-3-azabicyclo[3.1.0]hexan-6-yl)-1,2,4-oxadiazol-5-yl)methyl)-7-methyl-1,7-dihydro-6H-purin-6-one], the IC50 runs as follows: under setting [1], 0.194 µM; under setting [2], 0.043 µM.
For `O=c1c2cccnc2ncn1Cc1nc([C@H]2[C@@H]3CN(c4cc(Cl)ccn4)C[C@@H]32)no1` [Example Compound 183, 3-((3-((1R,5S,6r)-3-(4-chloropyridin-2-yl)-3-azabicyclo[3.1.0]hexan-6-yl)-1,2,4-oxadiazol-5-yl)methyl)pyrido[2,3-d]pyrimidin-4(3H)-one], the half-inhibitory concentration (IC50) was 0.0651 µM under setting [1] and 0.052 µM under setting [2].
Regarding `Cn1cnc2ncn(Cc3nc([C@H]4[C@@H]5C=C(c6cccc(Cl)c6)C[C@@H]54)no3)c(=O)c21` [Example Compound 184, 1-((3-((1S,5S,6R)-3-(3-chlorophenyl)bicyclo[3.1.0]hex-2-en-6-yl)-1,2,4-oxadiazol-5-yl)methyl)-7-methyl-1,7-dihydro-6H-purin-6-one], the “TRPA1 IC50 compared with 3-azabicyclo[3.1.0]hexene linker and cyclobutylene linker analogues” value is “improved TRPA1 IC50 values”. For the same compound, under setting [1], the IC50 was 0.00883 µM. Moreover, the IC50 under setting [2] came out at 0.0018 µM.
For `Cn1cnc2ncn(Cc3nc([C@@H]4[C@H]5C=C(c6cccc(Cl)c6)C[C@H]54)no3)c(=O)c21` [Example Compound 185, 1-((3-((1R,5R,6S)-3-(3-chlorophenyl)bicyclo[3.1.0]hex-2-en-6-yl)-1,2,4-oxadiazol-5-yl)methyl)-7-methyl-1,7-dihydro-6H-purin-6-one], in that order: “improved TRPA1 IC50 values”, 0.0185 µM and 0.0078 µM.
Turning to `Cn1cnc2ncn(Cc3nc([C@H]4[C@@H]5Oc6c(Cl)cccc6[C@@H]54)no3)c(=O)c21` [Example Compound 186, 1-((3-((1S,1aR,6bS)-3-chloro-1a,6b-dihydro-1H-cyclopropa[b]benzofuran-1-yl)-1,2,4-oxadiazol-5-yl)methyl)-7-methyl-1,7-dihydro-6H-purin-6-one], the IC50 by setting is: under setting [1], 0.0499 µM; under setting [2], 0.046 µM.
Turning to `Cn1cnc2ncn(Cc3nc([C@@H]4[C@H]5Oc6c(Cl)cccc6[C@H]54)no3)c(=O)c21` [Example Compound 187, 1-((3-((1R,1 aS,6bR)-3-chloro-1a,6b-dihydro-1H-cyclopropa[b]benzofuran-1-yl)-1,2,4-oxadiazol-5-yl)methyl)-7-methyl-1,7-dihydro-6H-purin-6-one], the IC50 under setting [1] amounted to 0.763 µM.
As to `Cn1cnc2ncn(Cc3nc([C@H]4C[C@H](c5cccc(C#N)c5)C4)no3)c(=O)c21` [Example Compound 189, 3-((1r,3r)-3-(5-((7-methyl-6-oxo-6,7-dihydro-1H-purin-1-yl)methyl)-1,2,4-oxadiazol-3-yl)cyclobutyl)benzonitrile], under setting [1], the 50% inhibitory concentration (IC50) came to 0.0682 µM.
On to `Cn1cnc2ncn(Cc3nc([C@H]4[C@@H]5CN(c6cccc(-c7ncco7)c6)C[C@@H]54)no3)c(=O)c21` [Example Compound 190, 7-methyl-1-((3-((1R,5S,6r)-3-(3-(oxazol-2-yl)phenyl)-3-azabicyclo[3.1.0]hexan-6-yl)-1,2,4-oxadiazol-5-yl)methyl)-1,7-dihydro-6H-purin-6-one], for which the IC50 by setting is: under setting [1], 0.0783 µM; under setting [2], 0.072 µM.
For `Cn1cnc2ncn(Cc3nc([C@H]4C[C@H](c5cccc(F)c5)C4)no3)c(=O)c21` [Example Compound 191, 1-((3-((1r,3r)-3-(3-fluorophenyl)cyclobutyl)-1,2,4-oxadiazol-5-yl)methyl)-7-methyl-1,7-dihydro-6H-purin-6-one], the IC50 under setting [1] was found to be 0.083 µM.
For the compound `Cn1cnc2ncn(Cc3nc([C@H]4[C@@H]5CN(c6ccc(C#N)cc6)C[C@@H]54)no3)c(=O)c21` [Example Compound 192, 4-((1R,5S,6r)-6-(5-((7-methyl-6-oxo-6,7-dihydro-1H-purin-1-yl)methyl)-1,2,4-oxadiazol-3-yl)-3-azabicyclo[3.1.0]hexan-3-yl)benzonitrile], the concentration for half-maximal inhibition (IC50) is, setting by setting: under setting [1], 0.0274 µM; under setting [2], 0.013 µM.

Values taken from patent publication US10711004B2 (Genentech, Inc., priority 2018, dated 2020).
